The values below come from ChEMBL document CHEMBL4840339, “A naphthyridine-indole ligand for selective stabilization of G-quadruplexes and conformational conversion of hybrid topology” (Bioorg Med Chem, 2021).

The test system of test [1] is Quadruplex DNA. As to the kind of experiment: Binding affinity to Tel23 G4 quadruplex DNA (unknown origin) assessed as conversion from hybrid topology to parallel topology by measuring positive signal at 266 nm at 10 to 100 uM by circular dichroism spectroscopy. In kind it is nucleic-acid assay. The note with it: dose 10-100 µM.
For test [2], the system named is Quadruplex DNA. The test is described as follows: Binding affinity to G4 quadruplex DNA (unknown origin) assessed as assessed as compound-DNA complex formation by 1H-NMR spectra analysis. The class given is nucleic-acid assay.
The subject of the next test is dsDNA. The test is described as follows: Stabilization of dsDNA (unknown origin) assessed as thermal stability by measuring increase in melting temperature by UV melting assay. In kind it is nucleic-acid assay.
Test [3] relates to Quadruplex DNA. The test is described as follows: Binding affinity to Bcl-2 G4 quadruplex DNA (unknown origin) assessed as conversion from hybrid topology to parallel topology by measuring positive signal at 266 nm at 10 to 100 uM by circular dichroism spectroscopy. In kind it is nucleic-acid assay. The note with it: dose 10-100 µM.
Test [4] relates to HeLa. As to the kind of experiment: Induction of apoptosis in human HeLa cells assessed as viable cells at 6 uM after 24 hrs by Annexin V-FITC/PI staining based flow cytometric analysis (reference value: 95.8 %). In kind it is functional. To be noted: read-out: Activity.
Test [5] relates to Quadruplex DNA. The test is described as follows: Stabilization of Tel26 G4 quadruplex DNA (unknown origin) assessed as thermal stability by measuring increase in melting temperature at 100 uM by variable temperature circular dichroism spectroscopy. The class given is nucleic-acid assay.
The test system of test [6] is Quadruplex DNA. As to the kind of experiment: Binding affinity to c-MYC G4 quadruplex DNA (unknown origin) assessed as conversion from hybrid topology to parallel topology by measuring positive signal at 266 nm at 10 to 100 uM by circular dichroism spectroscopy. The class given is nucleic-acid assay. The note with it: dose 10-100 µM.
The subject of test [7] is Quadruplex DNA. As to the kind of experiment: Stabilization of Tel26 G4 quadruplex DNA (unknown origin) assessed as thermal stability by measuring increase in melting temperature by UV melting assay. In kind it is nucleic-acid assay. The note with it: dose 5.0 µM.
For test [8], the system named is HeLa. The test is described as follows: Induction of apoptosis in human HeLa cells assessed as necrotic cells at 6 uM after 24 hrs by Annexin V-FITC/PI staining based flow cytometric analysis (reference value: 0.42 %). In kind it is functional.
The target in test [9] is Quadruplex DNA. As to the kind of experiment: Displacement of thiazole orange from Tel26 G4 quadruplex DNA (unknown origin) assessed as relative affinity by fluorescent intercalator displacement assay. The class given is nucleic-acid assay.
In test [10] the test system is HeLa. As to the kind of experiment: Induction of cell cycle arrest in human HeLa cells assessed as G2/M cell population level at 6 uM incubated for 24 hrs by propidium iodide /RNase staining based flow cytometry (reference value: 36 %). The class given is functional.
Test [11] relates to HeLa. The test is described as follows: Induction of cell cycle arrest in human HeLa cells assessed as S cell population level at 6 uM incubated for 24 hrs by propidium iodide /RNase staining based flow cytometry (reference value: 36 %). In kind it is functional.
Test [12] relates to HeLa. As to the kind of experiment: Cytotoxicity against human HeLa cells assessed as […] in cell viability measured after 48 hrs by MTT assay. In kind it is functional, cell-based.
For test [13], the system named is HeLa. As to the kind of experiment: Induction of apoptosis in human HeLa cells assessed as early apoptotic cells at 6 uM after 24 hrs by Annexin V-FITC/PI staining based flow cytometric analysis (reference value: 3.28 %). In kind it is functional.
The test system of test [14] is Quadruplex DNA. The test is described as follows: Binding affinity to Tel26 G4 quadruplex DNA (unknown origin) assessed as positive signal at 266 nm measured up to 90 deg C at 100 uM by variable temperature circular dichroism spectroscopy. In kind it is nucleic-acid assay.
Test [15] relates to Quadruplex DNA. As to the kind of experiment: Stabilization of G4 quadruplex DNA in human HeLa cells assessed as BG4 foci formation at 6 uM measured after 24 hrs by confocal microscopic analysis. The class given is cell-based.
For test [16], the system named is Quadruplex DNA. As to the kind of experiment: Binding affinity to Tel26 G4 quadruplex DNA (unknown origin) assessed as conversion from hybrid topology to parallel topology by measuring positive signal at 266 nm at 10 to 100 uM by circular dichroism spectroscopy. The note with it: dose 10-100 µM. The class given is nucleic-acid assay.
The subject of test [17] is Quadruplex DNA. As to the kind of experiment: Stabilization of F-Tel21-T G4 quadruplex DNA (unknown origin) assessed as thermal stability by measuring normalized intensity in presence of 10 to 50 eq dsDNA at 2 uM by FRET-based competition assay. In kind it is nucleic-acid assay.
For test [18], the system named is Quadruplex DNA. As to the kind of experiment: Binding affinity to c-KIT1 G4 quadruplex DNA (unknown origin) assessed as conversion from hybrid topology to parallel topology by measuring positive signal at 266 nm at 10 to 100 uM by circular dichroism spectroscopy. In kind it is nucleic-acid assay. The note with it: dose 10-100 µM.
The subject of test [19] is HeLa. The test is described as follows: Induction of cell cycle arrest in human HeLa cells assessed as G0/1 cell population level at 6 uM incubated for 24 hrs by propidium iodide /RNase staining based flow cytometry (reference value: 38 %). In kind it is functional.
The subject of test [20] is HeLa. As to the kind of experiment: Induction of apoptosis in human HeLa cells assessed as late apoptotic cells at 6 uM after 24 hrs by Annexin V-FITC/PI staining based flow cytometric analysis (reference value: 0.42 %). The class given is functional.
The subject of test [21] is Quadruplex DNA. The test is described as follows: Binding affinity to ds26 non-G4 DNA (unknown origin) assessed as conversion from hybrid topology to parallel topology by measuring positive signal at 266 nm at 10 to 100 uM by circular dichroism spectroscopy. The class given is nucleic-acid assay. The note with it: dose 10-100 µM.
In test [22] the test system is Quadruplex DNA. As to the kind of experiment: Stabilization of F-Tel21-T G4 quadruplex DNA (unknown origin) assessed as thermal stability by measuring normalized intensity at 2 uM by FRET assay. In kind it is nucleic-acid assay.
Test [23] concerns HeLa. As to the kind of experiment: Induction of apoptosis in human HeLa cells assessed as increase in caspase 3 level at 4 to 6 uM measured after 48 hrs. The class given is functional, cell-based. To be noted: dose 4-6 µM.

Calls of active or inactive are those of the source. The rule behind the calls is not given here.

Take `CN(C)CCOc1ccc2c(ccn2-c2ccc3ccc(-n4ccc5cc(OCCN(C)C)ccc54)nc3n2)c1`: the outcome with Quadruplex DNA [1], in the test with Quadruplex DNA [2], with Quadruplex DNA [3], in the test with Quadruplex DNA [7], in the test on Quadruplex DNA [14] and in the test on Quadruplex DNA [15] was Active. Also, the result in the test on Quadruplex DNA [16], with Quadruplex DNA [17], in the test on Quadruplex DNA [22] and with HeLa [23] was Active. Also, the result in the test with dsDNA, with Quadruplex DNA [6], in the test on Quadruplex DNA [18] and with Quadruplex DNA [21] was inactive. Also, the viability at 6 µM in the test on HeLa [4] came to 61.8%. For the same compound, in the test on Quadruplex DNA [5], the ΔTm worked out at 37 °C. In addition, the Activity stood at 1.49% in the test on HeLa [8]; 10% in the test on HeLa [10]; 33% in the test with HeLa [11]; 20.1% with HeLa [13]; 57% in the test on HeLa [19]; 16.6% in the test on HeLa [20]. Also, the figures for the IC50 on Quadruplex DNA [9] and in the test on HeLa [12] were 6.7 µM and 4.3 µM, respectively.
